Measurements reported in patent US20230303613A1, “3′3′ CYCLIC DINUCLEOTIDES WITH AN ALKENYLENE” (Institute of Organic Chemistry and Biochemistry AS CR, v.v.i, priority 2020, published 2023).

These compounds were tested against WT STING (Homo sapiens, UniProt Q86WV6, H232R) (assay: 293T WT STING standard reporter assay). Details: 293T wtSTING-FL cells; 7 hours with compound, no digitonin; ISRE firefly luciferase reporter.
Type: cell-based
Text: Two complementary oligonucleotides of the sequence […] […] […] […] […] The oligonucleotides were mixed in equal molar amounts, hybridized, and cleaved by restriction endonucleases HindIII (cat. #. R0104S, NEB, Ipswich, USA) and BglII (cat. # R0144S, NEB, Ipswich, USA). Ultimately, they were ligated into plasmid pGL4.27 (cat. # E6651, Promega, Madison, USA) linearized with the same enzymes. As result the sequence with four ISRE sites was placed upstream of the minimum promoter of firefly luciferase reporter gene.
After 5 minutes incubation at room temperature (RT), 250 µL of the mixture was added dropwise to the cells in one well. Cells were incubated 36 hours at 37° C. with 5% CO2, and then detached with 0.05% Trypsin and 0.22 g/L EDTA (both cat. # L0941, Biowest, Riverside, USA).
Transfected cells were seeded onto poly-D-lysine coated six well plates at density 50,000 cells per 1 cm^2 in DMEM medium with high glucose containing 10% heat inactivated FBS, 30 µg/mL blasticidin (cat. # ant-bl-05, InvivoGen, San Diego, USA), 0.06 mg/ml Penicillin G and 0.1 mg/ml Streptomycin Sulfate (both cat. #. L0018, Biowest, Riverside, USA). The medium was replenished every 3 - 4 days until visible colonies of cells resistant to blasticidin were formed.
Blasticidin resistant cells stably expressing WT STING were further transfected with […] plasmid following the same procedure as described above. […] Homogeneous culture of stably double transfected cells was prepared by limiting dilution of cells in 96 well plates and wells with cells were selected that originated from a single cell.
The medium was removed next day and three-fold serial dilutions of compounds in 100 µl medium were added to the cells. The plates with cells were incubated for 7 hours at 37° C. with 5% CO2. After 50 µl of the medium was removed, 30 µl of ONE-Glo^Tm Luciferase Assay System reagent (cat. # E6120, Promega, Madison, USA) was added to each well and luminescence was read on Synergy H1 (Biotek, Winooski, USA).

Sequence of WT STING (Q86WV6 whole entry H232R): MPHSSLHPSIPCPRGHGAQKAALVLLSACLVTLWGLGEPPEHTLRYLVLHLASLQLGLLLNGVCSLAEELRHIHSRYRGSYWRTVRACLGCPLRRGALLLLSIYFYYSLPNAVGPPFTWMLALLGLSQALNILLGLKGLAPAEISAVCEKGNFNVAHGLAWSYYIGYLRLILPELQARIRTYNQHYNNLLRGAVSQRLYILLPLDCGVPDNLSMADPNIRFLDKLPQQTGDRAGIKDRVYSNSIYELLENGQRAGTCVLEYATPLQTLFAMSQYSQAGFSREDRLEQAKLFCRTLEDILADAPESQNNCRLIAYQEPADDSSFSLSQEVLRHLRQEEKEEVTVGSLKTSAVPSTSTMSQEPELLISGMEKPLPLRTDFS

| Compound | EC50 [nM] |
| --- | --- |
| CCCCCCCC(=O)OCOP1(=O)/C=C/[C@H]2O[C@@H](n3cnc4c(N)ncnc43)[C@H](F)[C@@H]2OP(=O)(OCOC(=O)CCCCCCC)OC[C@H]2O[C@@H](n3cnc4c(N)ncnc43)[C@H](F)[C@@H]2O1 (single isomer, unassigned) [Compound 83c] | 3 |
| CC(C)(C)C(=O)OCOP1(=O)/C=C/[C@H]2O[C@@H](n3cnc4c(N)ncnc43)C[C@@H]2OP(=O)(OCOC(=O)C(C)(C)C)OC[C@H]2O[C@@H](n3cnc4c(N)ncnc43)[C@H](F)[C@@H]2O1 (single isomer, unassigned) [Compound 87a] | 12100 |
| CC(C)OC(=O)OCOP1(=O)/C=C/[C@H]2O[C@@H](n3cnc4c(N)ncnc43)[C@H](F)[C@@H]2OP(=O)(OCOC(=O)OC(C)C)OC[C@H]2O[C@@H](n3cnc4c(N)ncnc43)[C@H](F)[C@@H]2O1 (stereo partly drawn) [Compound 81a, {[(1R,6R,8R,9R,10R,13E,15R,17R,18R)-8,17-bis(6-amino-9H-purin-9-yl)-9,18-difluoro-3,12-dioxo-3-({[(propan-2-yloxy)carbonyl]oxy}methoxy)-2,4,7,11,16-pentaoxa-3λ^5,12λ^5-diphosphatricyclo[13.3.0.0^6,^10]octadec-13-en-12-yl]oxy}methyl propan-2-yl carbonate] | 9500 |
| {[(1R,6R,8R,9R,10R,13E,15R,17R,18R)-8,17-bis(6-amino-9H-purin-9-yl)-9,18-difluoro-3,12-dioxo-3-({[(propan-2-yloxy)carbonyl]oxy}methoxy)-2,4,7,11,16-pentaoxa-3λ^5,12λ^5- diphosphatricyclo[13.3.0.0^6,^10]octadec-13-en-12-yl]oxy}methyl propan-2-yl carbonate [Compound 81b] | 1200 |
| CCCCCCCC(=O)OCOP1(=O)/C=C/[C@H]2O[C@@H](n3cnc4c(N)ncnc43)[C@H](F)[C@@H]2OP(=O)(OCOC(=O)CCCCCCC)OC[C@H]2O[C@@H](n3cnc4c(N)ncnc43)[C@H](F)[C@@H]2O1 (single isomer, unassigned) [Compound 83a] | 23 |
| CC(C)(C)C(=O)OCOP1(=O)/C=C/[C@H]2O[C@@H](n3cnc4c(N)ncnc43)[C@H](F)[C@@H]2OP(=O)(OCOC(=O)C(C)(C)C)OC[C@H]2O[C@@H](n3cnc4c(N)ncnc43)[C@H](F)[C@@H]2O1 (single isomer, unassigned) [Compound 80a] | 84 |
| CC(C)(C)C(=O)OCOP1(=O)/C=C/[C@H]2O[C@@H](n3cnc4c(N)ncnc43)C[C@@H]2OP(=O)(OCOC(=O)C(C)(C)C)OC[C@H]2O[C@@H](n3cnc4c(N)ncnc43)[C@H](F)[C@@H]2O1 (single isomer, unassigned) [Compound 87b] | 670 |
| CC(C)(C)C(=O)OCOP1(=O)/C=C/[C@H]2O[C@@H](n3cnc4c(N)ncnc43)C[C@@H]2OP(=O)(OCOC(=O)C(C)(C)C)OC[C@H]2O[C@@H](n3cnc4c(N)ncnc43)[C@H](F)[C@@H]2O1 (single isomer, unassigned) [Compound 87c] | 260 |
| CC1(C(=O)OCOP2(=O)/C=C/[C@H]3O[C@@H](n4cnc5c(N)ncnc54)[C@H](F)[C@@H]3OP(=O)(OCOC(=O)C3(C)CCCCC3)OC[C@H]3O[C@@H](n4cnc5c(N)ncnc54)[C@H](F)[C@@H]3O2)CCCCC1 (single isomer, unassigned) [Compound 82b] | 80 |
| CCCCCCCC(=O)OCOP1(=O)/C=C/[C@H]2O[C@@H](n3cnc4c(N)ncnc43)[C@H](F)[C@@H]2OP(=O)(OCOC(=O)CCCCCCC)OC[C@H]2O[C@@H](n3cnc4c(N)ncnc43)[C@H](F)[C@@H]2O1 (single isomer, unassigned) [Compound 83b] | 3 |
| CC(C)(C)C(=O)OCOP1(=O)/C=C/[C@H]2O[C@@H](n3cnc4c(N)ncnc43)[C@H](F)[C@@H]2OP(=O)(OCOC(=O)C(C)(C)C)OC[C@H]2O[C@@H](n3cnc4c(N)ncnc43)[C@H](F)[C@@H]2O1 (single isomer, unassigned) [Compound 80b] | 22 |
